In patent publication US6407116B1, “Nitrogenous fused-ring compounds, process for the preparation of the same, and drugs” (Takeda Chemical Industries, Inc., priority 1997, dated 2002):
Where a name gives a salt, the structure may show the parent alone.

Columns and labels:
guinea-pig eosinophils = experiment: Chemotaxis inhibition assay: LTB4-induced chemotaxis in guinea-pig eosinophils; type: cell-based; conditions: test substance 1×10^−5 M, LTB4 10^−8 M, 2 hours; for inhibition at 10 µM: Cavia porcellus, Eosinophil
Procedure: 1) Guinea-pig Eosinophil Preparation
Male Hartley guinea-pigs received 2 ml of equine serum (Bio-Whittaker, Inc) intraperitoneally once a week for successive 8 weeks. 48 hours after the last administration, 75 ml of physiological saline was injected into the peritoneal cavity, and the fluid was recovered and centrifuged at 400 G for 5 minutes. […] Erythrocytes in the isolated cell pellet, if any, were removed by hypotonic treatment (suspended in water for 30 seconds).
2) Chemotaxis Inhibition Assay
600 μl of LTB4 suspended in Hanks-Hepes-HSA (final concentration of 10^−8 M, Cascade Biochemical Ltd.) was placed in the lower compartment of a 24-well plate and kept at 37° C. for 30 minutes in a CO2 gas incubator. After mounting a Chemotaxicell (polycarbonate membrane, pore size 3 μm, thickness 10 μm), which served as an upper compartment, on the 24-well plate described above, 200 μl of eosinophil suspension (5×10^6 cells/ml), which had been incubated at 37° C. for 15 minutes in a thermostat chamber, was added to the upper compartment. After allowing to react for 2 hours in the CO2 gas incubator, the Chemotaxicell was removed, and 60 μl of 2% (w/v) EDTA solution in physiological saline was added to the lower compartment. After cooling on ice, the cells which underwent the chemotaxis into the lower compartment were counted using a blood cell counter (Coulter Counter (trade name)). In the procedure described above, the test substance was dissolved in N,N-dimethylformamide (DMF) and added to the upper and lower compartments at the final concentration of 10^−5 M.
% Chemotaxis inhibition=[…] [Equation 2]
The results are shown in [Table 2].

[1] = test system: histamine-induced dermal vascular hyperpermeability; experiment: Effect on histamine-induced dermal vascular hyperpermeability in guinea pigs; type: in vivo, guinea pig; conditions: 3 mg/kg oral administration, 1 hour before intradermal histamine; male Hartley guinea pigs
Procedure: Effect on Histamine-induced Dermal Vascular Hyperpermeability in Guinea Pigs
Male Hartley guinea pigs (weighing about 500 g) were used. […] After 30 minutes, the animal was hit on its head to make it unconscious, and cut at its neck to sacrifice by exsanguination. The dorsal skin was peeled and examined for the long and short diameters (mm) of each blue spot which were then multiplied to give a product, which was averaged to give a vascular permeability index. Each substance was suspended in 5% gum arabic solution, and given orally in the volume of 0.2 ml/100 g body weight 1 hour before histamine administration. Control animals received the same volume of 5% gum arabic solution. A % inhibition of this reaction was calculated according to [Equation 1].
% Inhibition of histamine-induced dermal vascular hyperpermeability=100×(1-vascular permeability index in treatment group/vascular permeability index in control group) [Equation 1]

Compound | inhibition at 10 µM (guinea-pig eosinophils) [%] | melting point [°C] | also measured
Cc1ccc2c(c1)c(=O)[nH]c(=O)n2CCCCN1CCC(OC(c2ccccc2)c2ccccc2)CC1 [Example 13, 2,4-Dioxo-1-[4-(4-diphenylmethoxypiperidino)butyl]-6-methyl-1,2,3,4-tetrahydroquinazoline] | 66 | 180 to 182 | –
O=c1nc2n(CCCCN3CCC(OC(c4ccccc4)c4ccccc4)CC3)ccnc-2c(=O)[nH]1 [Example 8, 2,4-Dioxo-8-[4-(4-diphenylmethoxypiperidino)butyl]-1,2,3,4-tetrahydropteridine] | – | – | Inhibition of histamine-induced dermal vascular hyperpermeability (%) [1]: 92%
O=C(O)CCCCCn1c(=O)c2ccccc2n(CCCCN2CCC(OC(c3ccccc3)c3ccccc3)CC2)c1=O [Example 98, 2,4-Dioxo-1-[4-(4-diphenylmethoxypiperidino)butyl]-1,2,3,4-tetrahydroquinazoline-3-hexanoic acid] | 50 | 155 to 157 | –
CCOC(=O)CN(C)C(=O)Cn1c(=O)c2ccccc2n(CCCCN2CCC(OC(c3ccccc3)c3ccccc3)CC2)c1=O.Cl [Example 110, 2,4-Dioxo-1-[4-(4-diphenylmethoxypiperidino)butyl]-N-ethoxycarbonylmethyl-N-methyl-1,2,3,4-tetrahydroquinazoline-3-acetamide hydrochloride] | 122 | 170 to 172 | –
O=c1c2ccccc2n(CCCCN2CCC(OC(c3ccccc3)c3ccccc3)CC2)c(=O)n1CCCc1ccccc1 [Example 58, 2,4-Dioxo-1-[4-(4-diphenylmethoxypiperidino)butyl]-3-(3-phenylpropyl)-1,2,3,4-tetrahydroquinazoline hydrochloride] | 84 | – | –
Cl.O=c1[nH]c(=O)n(CCCN2CCC(OC(c3ccccc3)c3ccccc3)CC2)c2ncccc12 [Example 6, 2,4-Dioxo-1-[3-(4-diphenylmethoxypiperidino)propyl]-1,2,3,4-tetrahydropyrido[2,3-d]pyrimidine hydrochloride] | 67 | 131 to 133 | –
O=c1c2ccccc2n(CCCCN2CCC(OC(c3ccccc3)c3ccccc3)CC2)c(=O)n1CCO [Example 55, 2,4-Dioxo-1-[4-(4-diphenylmethoxypiperidino)butyl]-3-(2-hydroxyethyl)-1,2,3,4-tetrahydroquinazoline] | 64 | 145 to 150 | –
CN(CC(=O)O)C(=O)Cn1c(=O)c2ccccc2n(CCCCN2CCC(OC(c3ccccc3)c3ccccc3)CC2)c1=O [Example 114, N-Carboxylmethyl-2,4-dioxo-1-[4-(4-diphenylmethoxypiperidino)butyl]-N-methyl-1,2,3,4-tetrahydroquinazoline-3-acetamide] | 54 | – | –
COC(=O)Cc1ccc2c(c1)c(=O)[nH]c(=O)n2CCCCN1CCC(OC(c2ccccc2)c2ccccc2)CC1 [Example 86, Methyl 2,4-dioxo-1-[4-(4-diphenylmethoxypiperidino)butyl]-1,2,3,4-tetrahydroquinazoline-6-acetate] | 55 | – | –
COC(=O)CNC(=O)Cn1c(=O)c2ccccc2n(CCCCN2CCC(OC(c3ccccc3)c3ccccc3)CC2)c1=O [Example 109, 2,4-Dioxo-1-[4-(4-diphenylmethoxypiperidino)butyl]-N-methoxycarbonylmethyl-1,2,3,4-tetrahydroquinazoline-3-acetamide hydrochloride] | 55 | – | –
CC(C)(C)n1c(=O)c2ccccc2n(CCCCN2CCC(OC(c3ccccc3)c3ccccc3)CC2)c1=O.Cl [Example 22, 3-(1,1-Dimethylethyl)-2,4-dioxo-1-[4-(4-diphenylmethoxypiperidino)butyl]-1,2,3,4-tetrahydroquinazoline hydrochloride] | 72 | 229 to 231 | –
CC(=O)OCC(=O)Nc1ccc2c(c1)c(=O)[nH]c(=O)n2CCCCN1CCC(OC(c2ccccc2)c2ccccc2)CC1 [Example 46, 6-Acetoxyacetamide-2,4-dioxo-1-[4-(4-diphenylmethoxypiperidino)butyl]-1,2,3,4-tetrahydroquinazoline] | – | – | Inhibition (%) of LTB4-induced chemotaxis (guinea-pig eosinophils): 52%
O=C(O)CCCCn1c(=O)c2cc(F)ccc2n(CCCCN2CCC(OC(c3ccccc3)c3ccccc3)CC2)c1=O [Example 101, 2,4-Dioxo-1-[4-(4-diphenylmethoxypiperidino)butyl]-6-fluoro-1,2,3,4-tetrahydroquinazoline-3-valeric acid] | 50 | – | –
COC(=O)C1(n2c(=O)c3ccccc3n(CCCCN3CCC(OC(c4ccccc4)c4ccccc4)CC3)c2=O)CCCCC1 [Example 97, Methyl 1-[2,4-dioxo-1-[4-(4-diphenylmethoxypiperidino)butyl]-1,2,3,4-tetrahydroquinazolin-3-yl]-1-cyclohexylcarboxylate hydrochloride] | 62 | – | –
COC(=O)COC(=O)Cn1c(=O)c2ccccc2n(CCCCN2CCC(OC(c3ccccc3)c3ccccc3)CC2)c1=O [Example 69, Methoxycarbonylmethyl 2,4-dioxo-1-[4-(4-diphenylmethoxypiperidino)butyl]-1,2,3,4-tetrahydroquinazoline-3-acetate hydrochloride] | 96 | – | –
CCOC(=O)CCNC(=O)Cn1c(=O)c2ccccc2n(CCCCN2CCC(OC(c3ccccc3)c3ccccc3)CC2)c1=O.Cl [Example 111, 2,4-Dioxo-1-[4-(4-diphenylmethoxypiperidino)butyl]-N-(2-ethoxycarbonylethyl)-1,2,3,4-tetrahydroquinazoline-3-acetamide hydrochloride] | 80 | 123 to 124 | –
O=C(O)CNC(=O)CCn1c(=O)c2ccccc2n(CCCCN2CCC(OC(c3ccccc3)c3ccccc3)CC2)c1=O [Example 116, N-Carboxylmethyl-2,4-dioxo-1-[4-(4-diphenylmethoxypiperidino)butyl]-1,2,3,4-tetrahydroquinazoline-3-propionamide hydrochloride] | 52 | – | –
N-(2-Carboxylethyl)-carboxylmethyl-2,4-dioxo-1-[4-(4-diphenylmethoxypiperidino)butyl]-N-methyl-1,2,3,4-tetrahydroquinazoline-3-acetamide [Example 115] | – | – | Inhibition (%) of LTB4-induced chemotaxis (guinea-pig eosinophils): 56%
O=c1[nH]c(=O)n(CCCCN2CCC(OC(c3ccccc3)c3ccccc3)CC2)c2ccc(Cl)cc12 [Example 10, 6-Chloro-2,4-dioxo-1-[4-(4-diphenylmethoxypiperidino)butyl]-1,2,3,4-tetrahydroquinazoline] | 50 | 209 to 210 | –
CN(CCc1ccccc1)C(=O)Cn1c(=O)c2ccccc2n(CCCCN2CCC(OC(c3ccccc3)c3ccccc3)CC2)c1=O.Cl [Example 56, 2,4-Dioxo-1-[4-(4-diphenylmethoxypiperidino)butyl]-N-methyl-N-(2-phenethyl)-1,2,3,4-tetrahydroquinazoline-3-acetamide hydrochloride] | – | – | Inhibition (%) of LTB4-induced chemotaxis (guinea-pig eosinophils): 73%
O=C(O)CCCCn1c(=O)c2cc(O)ccc2n(CCCCN2CCC(OC(c3ccccc3)c3ccccc3)CC2)c1=O [Example 105, 2,4-Dioxo-1-[4-(4-diphenylmethoxypiperidino)butyl]-6-hydroxy-1,2,3,4-tetrahydroquinazoline-3-valeric acid] | – | 234 to 236 | –
COC(=O)C1(n2c(=O)c3ccccc3n(CCCCN3CCC(OC(c4ccccc4)c4ccccc4)CC3)c2=O)CCCC1.Cl | – | 178 to 180 | –
COc1ccc(Cn2c(=O)c3ccccc3n(CCCCN3CCC(OC(c4ccccc4)c4ccccc4)CC3)c2=O)cc1 [Example 26, 2,4-Dioxo-1-[4-(4-diphenylmethoxypiperidino)butyl]-3-(4-methoxybenzyl)-1,2,3,4-tetrahydroquinazoline] | 50 | 99 to 100 | –
COC(=O)c1ccc2c(=O)[nH]c(=O)n(CCCCN3CCC(OC(c4ccccc4)c4ccccc4)CC3)c2c1 [Example 85, Methyl 2,4-dioxo-1-[4-(4-diphenylmethoxypiperidino)butyl]-1,2,3,4-tetrahydroquinazoline-7-carboxylate] | – | 192 to 194 | –
O=C(O)CCCn1c(=O)n(CCCCN2CCC(OC(c3ccccc3)c3ccccc3)CC2)c(=O)c2ccccc21 [Example 78, 2,4-Dioxo-3-[4-(4-diphenylmethoxypiperidino)butyl]-1,2,3,4-tetrahydroquinazoline-1-butyric acid] | – | 227 to 229 | –
